The subject of data set [1] is immature embryos from spring barley variety Golden Promise. Briefly: In vitro germination bioassay of immature embryos on medium with D-serine or D-alanine. It counts as cell-based, barley (Hordeum vulgare L.). To be noted: for Immature Embryos (%) germinated in vitro: scored after 14 days; for concentration lethal in the bioassay: immature embryo germination; for concentration above which seedlings were susceptible to the selection: seedlings from embryos isolated without endosperms. As to the method:
In order to establish effective concentrations of D-Serine and D-Alanine on inhibiting growth of tissue cultured barley cells, a bioassay system using immature embryos was applied. Immature embryos from spring barley variety Golden Promise 2 mm in length were dissected onto germination PAW-5 hormone free medium with D-serine or D-alanine in range of concentrations between 0 and 5 mM and maintained at 25° C. with a 16 h photoperiod. The number of germinated embryos with well-developed shoots and brunched roots were scored after 14 days.

Data set [2] concerns wild-type plants. To be noted: plants not expressing D-amino acid oxidase; cited from earlier work.
The test system of data set [3] is immature embryos / embryogenic callus from Golden Promise. Briefly: Agrobacterium-mediated barley transformation with pRLM166 (dsdA), PAW media, selection on D-Serine. The class given is cell-based, barley (Hordeum vulgare L.). To be noted: construct pRLM166, selection 5 mM D-Serine.
Data set [4] has the same test system. Briefly: Agrobacterium-mediated barley transformation with pRLM167 or pRLM205 (dsdA, dao1, PAT), PAB media, selection on D-Serine or bialaphos. The class given is cell-based, barley (Hordeum vulgare L.).
Setting [5] is: 0.5 mM in PAW-5 hormone free medium.
[6] abbreviates: 1 mM in PAW-5 hormone free medium.
The mark [7] stands for this setting: 2 mM in PAW-5 hormone free medium.
The mark [8] stands for this setting: 5 mM in PAW-5 hormone free medium.
[9] abbreviates: construct pRLM167, selection 5 mM D-Serine or 5 mg/l bialaphos.

These results are taken from patent US20090300800A1, “D-Amino Acid a Selectable Marker for Barley (Hordeum Vulgare L.) Transformation” (BASF Plant Science GmbH, priority 2005, published 2009).

Several values for one entry are separate records, joined by “and”; a condition that tells them apart may be missing. Equal values may be shown once. Where only a bound is given, the exact number is not on record here.

With `C[C@@H](N)C(=O)O` [D-alanine], the “Immature Embryos (%) germinated in vitro” value in data set [1] (setting [5]) stood at 37%; in data set [1] (setting [6]), 0%; in data set [1] (setting [7]), 0%; in data set [1] (setting [8]), 0%. The “concentration lethal in the bioassay” value in data set [1] is recorded as 1 mM. For the same compound, the “concentration above which seedlings were susceptible to the selection” value in data set [1] is over 1 mM. Also, the “toxicity to wild-type plants” value in data set [2] was “highly phytoptoxic to plants”.
For `CC[C@@H](C)[C@@H](N)C(=O)O` [D-isoleucine], the “toxicity to wild-type plants” value in data set [2] is “not toxic to wild-type plants”.
With `N[C@H](CO)C(=O)O` [D-serine], the “Immature Embryos (%) germinated in vitro” value in data set [1] (setting [5]) was determined as 49%; in data set [1] (setting [6]) it was 17%; in data set [1] (setting [7]), 0%; in data set [1] (setting [8]) it was 0%. Further, the “concentration lethal in the bioassay” value in data set [1] is reported as 2 mM. Further, the “concentration above which seedlings were susceptible to the selection” value in data set [1] was “higher than 2 mM”. Besides, the “TE % (Transformation Efficiency, % of transgenic plants out of the explants)” value is 2.2% and 2.1% in data set [3]; 4.6% in data set [4] (setting [9]); 3.6% in data set [4] (construct pRLM205 (dao1), selection 5 mM D-Serine). In addition, the “toxicity to wild-type plants” value in data set [2] is reported as “highly phytoptoxic to plants”.
In the case of `CC(C)[C@@H](N)C(=O)O` [D-valine], in data set [2], the “toxicity to wild-type plants” value is “not toxic to wild-type plants”.
Consider `C[C@H](NC(=O)[C@H](C)NC(=O)[C@@H](N)CCP(C)(=O)O)C(=O)O` [bialaphos], for which the “TE % (Transformation Efficiency, % of transgenic plants out of the explants)” value in data set [4] (setting [9]) came to 3.4%.
